Legend:
lung and spleen = experiment: Luciferase mRNA expression in mouse tissues after intravenous administration (bioluminescence); type: in vivo, Balb/c mice; details: 6 hours, DOTMA/DOPE w/w=23:1 to mRNA, dendrimers NP=0.6:1, FIG. 11
Description: All animal procedures were conducted following the Animal Research Reporting of In Vivo Experiments and approved by the UK Home Office for the conduct of regulated procedures under license. For the data underlying FIG. 11, Balb/c mice aged 4 weeks were purchased from Jackon's Laboratory and left to acclimate in the new housing environment for 1-week upon their arrival. All mice were weighed and warmed for 15 min at 37 C in a heating chamber. The formulations were delivered intravenously (5 mL/kg) via the tail vein using 30 G insulin syringes (BD biosciences).
All mice were imaged 6 hours post injection. BLI was performed using an IVIS Lumina II (Perkin Elmer) imaging system. Mice were administered D-luciferin (GoldBio) at a dose of 10 uL/g. Mice were anaesthetised in a chamber with 2.5% isoflurane and then placed on a heated imaging platform while being maintained on 2.5% isoflurane. For the data underlying FIG. 11, mice were imaged 10 min post administration of D-luciferin with an exposure time set at 45 sec to ensure the signal acquired was within an effective detection range (binning medium). Bioluminescence signal was quantified by measuring photon flux (photons/s) using the Living Image software (Perkin Elmer). […] The organs were placed in the centre of imaging platform (Lumina II system) and signal was measured using the acquisition settings detailed above. […]

[1] = Dynamic light scattering: hydrodynamic size and polydispersity index (PDI) of nanoparticles; type: physicochemical
Method in brief: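 Hydrodynamic size measured by DLS (Stokes-Einstein), PDI from cumulants fit per ISO 13321/22412. Samples diluted 16× in 25 mM HEPES, water as dispersant, 25° C; PDI measured on dendrimer:nucleic acid 8:1 nanoparticles.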

[2] = Zeta potential of nanoparticles (electrophoretic light scattering); type: physicochemical
Excerpt: Zeta potential is a measurement of the magnitude of the electrostatic or charge repulsion/attraction between particles. This can be determined by analysing particle mobility and charge (Zeta potential) using the Electrophoretic Light Scattering (ELS) technique.
Zeta potential is a measurement of the magnitude of the electrostatic or charge repulsion/attraction between particles. This can be determined by analysing particle mobility and charge (Zeta potential) using the Electrophoretic Light Scattering (ELS) technique. […] Parameters: reference material: polystyrene latex, dispersant: water, 25° C. The measurements of the zeta potential were carried out using the Zetasizer Advance Series—Pro (Malvern Panalytical Ltd, Malvern, UK) according to the manufacturer's instructions.

[3] = GSCG1,2-RHL N:P=0.6:1, DOTMA:DOPE, coated with GSGGSGGSCG1-EEEE, with/without CpG (mRNA:CpG w/w 9:1)
[4] = GSCG1,2-RHL and DOTMA:DOPE nanoparticles, 150 ug/mL mRNA, 40× dilution in 25 mM HEPES buffer
[5] = mRNA, N:P 0.6:1, DOTMA:DOPE w/w 10:1, with or without 3 equivalents G1-EEEE with mannose coating

delivery of luciferase mRNA cargo to lung and spleen (bioluminescence) (lung and spleen): further improved
Hydrodynamic size [1, 3]: 174 nm
PDI [1, 3]: 0.17
DLS measurement, Pdl [1, 4]: 0.13
DLS measurement, size [1, 4]: 184 nm
PDI [1, 5]: 0.1776
size [1, 5]: 149.5 nm
zeta potential [2, 3]: +48 mV
Zeta potential measurement ([2]; GSCG1,2-RHL and DOTMA:DOPE nanoparticles, diluted 3× in 25 mM HEPES, then 60× in water): +33.5 mV
zeta potential [2, 5]: 28.23 mV
Substance: (RHL)4(KRHL)2KGSC-NH2 [GSCG1,2-RHL]

Reference: US20260014278A1, “HYBRID PEPTIDE DENDRIMER SYSTEMS AND EXTRAHEPATIC DELIVERY” (NUNTIUS THERAPEUTICS LIMITED, priority 2022, published 2026)
